This note sets out measurements from patent US20100222322A1, “Non-Nucleoside Reverse Transcriptase Inhibitors” (MERCK & CO., INC., priority 2005, published 2010).

What is called IC95 is the point of the concentration-response curve where the effect stands at 95%. One may read the IC50 as the midpoint of a concentration-inhibition curve.

Assay [1] deals with HIV replication in T-lymphoid cells. Kind of assay: Spread assay: inhibition of acute HIV infection of T-lymphoid cells. It is filed as cell-based. The settings on record: read-out: IC95, spread assay (inhibition of HIV replication). The method, then: An assay for the inhibition of acute HIV infection of T-lymphoid cells (alternatively referred to herein as the “spread assay”) was conducted in accordance with Vacca, J. P. et al., Proc. Natl. Acad. Sci. USA 1994, 91: 4096. […] The compounds of Examples 26, 29, 30, 33-35 and 62 were tested in the spread assay up to 10 micromolar, but specific IC95 values were not obtained; i.e., the IC95 values were greater than 10 micromolar. The compounds of Examples 47 and 61 were not tested.

Assay [2] addresses T1, mutant HIV reverse transcriptase with the K103N mutation (Human immunodeficiency virus type 1 group M subtype B, UniProt P04585, K690N).
T1 construct: mutations that occur in the reverse transcriptase segment of the pol gene; made in house
Kind of assay: Analogous RT inhibition assay, K103N mutant. It is filed as biochemical. Here is the method: (§1) 100 μL reaction mixtures were initiated with a combination of primer-template substrate (10 nM final concentration) and dNTPs (0.6 μM dNTPs, 0.75 μM [^3H]-dGTP). The heterodimeric nucleic acid substrate was generated by annealing the DNA primer pD500 (described in Shaw-Reid et al., J. Biol. Chem., 278: 2777-2780; obtained from Integrated DNA Technologies) to t500, a 500 nucleotide RNA template created by in vitro transcription (see Shaw-Reid et al., J. Biol. Chem., 278: 2777-2780). After 1 hour incubation at 37° C., reactions were quenched by 10 μL streptavidin scintillation proximity assay beads (10 mg/mL, from Amersham Biosciences) in 0.5 M EDTA, pH 8. Microtiter plates were incubated an additional 10 minutes at 37° C. prior to quantification via Topcount (Packard).
(§2) Analogous assays were conducted substituting mutant HIV strains to determine the […] inhibition of compounds of the present invention against mutant HIV reverse transcriptase. In one strain the reverse transcriptase has the Y181C mutation and in the other strain the reverse transcriptase has the K103N mutation. The mutations were generated with the […] site-directed mutagenesis kit (Stratagene). […] The compounds set forth in the other Examples were not tested in the Y181C assay. […] The compounds set forth in the other Examples were not tested in the K103N assay.

Assay [3] deals with T2, mutant HIV reverse transcriptase with the Y181C mutation (Human immunodeficiency virus type 1 group M subtype B, UniProt P04585, Y768C).
T2 construct: mutations that occur in the reverse transcriptase segment of the pol gene; made in house
Kind of assay: Analogous RT inhibition assay, Y181C mutant. It is filed as biochemical. Here is the method: as §1, §2

[4] abbreviates: Human immunodeficiency virus 1, acute HIV infection of T-lymphoid cells, tested up to 10 micromolar.
[5] abbreviates: RT with Y181C mutation, tested up to 20 micromolar, read-out: IC50, Y181C mutant assay.
Where [6] appears, read: RT with K103N mutation, tested up to 20 micromolar, read-out: IC50, K103N mutant assay.
Setting [7] is: Human immunodeficiency virus 1, T-lymphoid.

Where two headings read alike, the source gives them in different places.

In the case of `NC(=O)c1[nH]c2ccc(Cl)cc2c1S(=O)(=O)N1CC=CC1` [Example 37, 5-chloro-3-(2,5-dihydro-1H-pyrrol-1-ylsulfonyl)-1H-indole-2-carboxamide], the IC95 in assay [1] (setting [4]) is less than 1000 nM. Further, the figures for the IC50 in assay [2] and in assay [3] (setting [5]) were 1000 to 20000 nM and less than 1000 nM, respectively.

Consider `NC(=O)c1[nH]c2ccc(Br)cc2c1S(=O)(=O)N1CCCCC1` [Example 13, 5-bromo-3-(piperidin-1-ylsulfonyl)-1H-indole-2-carboxamide], for which, in assay [1] (setting [4]), the IC95 was less than 1000 nM. The figures for the IC50 in assay [2] (setting [6]) and in assay [3] (setting [5]) were 1000 to 20000 nM and less than 1000 nM, respectively.

Consider `CON(C)S(=O)(=O)c1c(C(N)=O)[nH]c2ccc(Br)cc12` [Example 12, 5-bromo-3-{[methoxy(methyl)amino]sulfonyl}-1H-indole-2-carboxamide], for which the IC95 in assay [1] (setting [4]) is less than 1000 nM. Further, the half-inhibitory concentration (IC50) in assay [2] and in assay [3] was greater than 20000 nM in each case.

Turning to `O=C(NCc1ccn[nH]1)c1[nH]c2ccc(Br)cc2c1S(=O)(=O)N1CCCC1` [Example 59, 5-bromo-N-(1H-pyrazol-5-ylmethyl)-3-(pyrrolidin-1-ylsulfonyl)-1H-indole-2-carboxamide], the IC95 in assay [1] (setting [4]) was less than 1000 nM. Further, the IC50 in assay [2] and in assay [3] was less than 1000 nM in each case.

For `O=C(NCc1ccccc1OC(F)F)c1[nH]c2ccc(Br)cc2c1S(=O)(=O)N1CCCC1` [Example 53, 5-bromo-N-[2-(difluoromethoxy)benzyl]-3-(pyrrolidin-1-ylsulfonyl)-1H-indole-2-carboxamide], the IC95 in assay [1] (setting [4]) was less than 1000 nM. The IC50 in assay [2] and in assay [3] was less than 1000 nM throughout.

Take `NC(=O)c1[nH]c2ccc(Br)cc2c1S(=O)(=O)N1CCCC1` [Example 1, 5-Bromo-3-(pyrrolidin-1-ylsulfonyl)-1H-indole-2-carboxamide]: the IC95 in assay [1] (setting [4]) was less than 1000 nM. For the same compound, the IC50 is 1000 to 20000 nM in assay [2] (setting [6]) and less than 1000 nM in assay [3] (setting [5]).

As to `O=C(NCCO)c1[nH]c2ccc(Br)cc2c1S(=O)(=O)N1CCCCC1` [Example 31, 5-bromo-N-(2-hydroxyethyl)-3-(piperidin-1-ylsulfonyl)-1H-indole-2-carboxamide], the IC95 in assay [1] (setting [7]) was less than 1000 nM. For the same compound, the results for the IC50 in assay [2] and in assay [3] were greater than 20000 nM and less than 1000 nM, respectively.

Consider `NC(=O)c1[nH]c2ccc(Cl)cc2c1S(=O)(=O)NC1CCCCC1` [Example 2, 5-chloro-3-[(cyclohexylamino)sulfonyl]-1H-indole-2-carboxamide], for which, in assay [1] (setting [4]), the IC95 is less than 1000 nM. The IC50 in assay [2] was greater than 20000 nM; in assay [3], less than 1000 nM.

Regarding `O=C(NCc1ccccc1O)c1[nH]c2ccc(Br)cc2c1S(=O)(=O)N1CCCC1` [Example 51, 5-bromo-N-(2-hydroxybenzyl)-3-(pyrrolidin-1-ylsulfonyl)-1H-indole-2-carboxamide], in assay [1] (setting [4]), the IC95 is less than 1000 nM. For the same compound, the IC50 in assay [2] and in assay [3] was less than 1000 nM in each case.

For `O=C(NCCO)c1[nH]c2ccc(Br)cc2c1S(=O)(=O)N1CCCC1` [Example 32, 5-bromo-N-(2-hydroxyethyl)-3-(pyrrolidin-1-ylsulfonyl)-1H-indole-2-carboxamide], the IC95 in assay [1] (setting [7]) is less than 1000 nM. For the same compound, the IC50 in assay [2] was 1000 to 20000 nM; in assay [3], less than 1000 nM.

Turning to `NC(=O)c1[nH]c2ccc(Br)cc2c1S(=O)(=O)N1CCC[C@H]1C(F)(F)F` [Example 19, 5-bromo-3-{[(2S)-2-(trifluoromethyl)pyrrolidin-1-yl]sulfonyl}-1H-indole-2-carboxamide], the IC95 in assay [1] (setting [4]) was less than 1000 nM. Also, the IC50 in assay [2] (setting [6]) was greater than 20000 nM; in assay [3] it was 1000 to 20000 nM.

As to `NC(=O)c1[nH]c2ccc(Br)cc2c1S(=O)(=O)N1CC=CC1` [Example 10, 5-bromo-3-(2,5-dihydro-1H-pyrrol-1-ylsulfonyl)-1H-indole-2-carboxamide], the IC95 in assay [1] (setting [4]) is less than 1000 nM. The IC50 in assay [2] and in assay [3] was less than 1000 nM each time.

In the case of `COC[C@@H]1CCCN1S(=O)(=O)c1c(C(N)=O)[nH]c2ccc(Br)cc12` [Example 15, 5-bromo-3-{[(2S)-2-(methoxymethyl)pyrrolidin-1-yl]sulfonyl}-1H-indole-2-carboxamide], the IC95 in assay [1] (setting [4]) was less than 1000 nM. Further, the values for the IC50 in assay [2] (setting [6]) and in assay [3] (setting [5]) were 1000 to 20000 nM and less than 1000 nM, respectively.

As to `NC(=O)c1[nH]c2ccc(Br)cc2c1S(=O)(=O)NC1CC1` [Example 11, 5-bromo-3-[(cyclopropylamino)sulfonyl]-1H-indole-2-carboxamide], in assay [1] (setting [4]), the IC95 was less than 1000 nM. The figures for the IC50 in assay [2] and in assay [3] were greater than 20000 nM and 1000 to 20000 nM, respectively.

For the compound `NC(=O)c1[nH]c2ccc(Cl)cc2c1S(=O)(=O)N1CCCC1` [Example 6, 5-chloro-3-(pyrrolidin-1-ylsulfonyl)-1H-indole-2-carboxamide], the IC95 in assay [1] (setting [4]) is less than 1000 nM. Besides, the results for the IC50 in assay [2] and in assay [3] (setting [5]) were 1000 to 20000 nM and less than 1000 nM, respectively.

Consider `NC(=O)c1[nH]c2ccc(Br)cc2c1S(=O)(=O)N1CCCC(F)(F)C1` [Example 21, 5-bromo-3-[(3,3-difluoropiperidin-1-yl)sulfonyl]-1H-indole-2-carboxamide], for which the IC95 in assay [1] (setting [4]) is less than 1000 nM. Moreover, the IC50 in assay [2] is greater than 20000 nM; in assay [3] it was less than 1000 nM.

For `N#Cc1ccc2[nH]c(C(N)=O)c(S(=O)(=O)N3CCCC3)c2c1` [Example 68, 5-Cyano-3-(pyrrolidin-1-ylsulfonyl)-1H-indole-2-carboxamide], the IC95 in assay [1] (setting [4]) was less than 1000 nM. Also, the IC50 is 1000 to 20000 nM in assay [2] (setting [6]) and greater than 20000 nM in assay [3] (setting [5]).
